PubChem BioAssay (NCI)
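Abbreviation: GI50, concentration required for 50% inhibition of growth. At the TGI there is no net growth.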

Columns and labels:
Experiment in all cases: NCI anticancer screen, dose series, 384-well format
RXF 393 renal = tested on: RXF 393 renal
ACHN renal = tested on: ACHN renal
U251 glioblastoma = tested on: U251 glioblastoma
OVCAR-3 ovarian = tested on: OVCAR-3 ovarian
NCI-H460 NSCLC = tested on: NCI-H460 NSCLC
MDA-MB-468 breast = tested on: MDA-MB-468 breast
HOP-62 NSCLC = tested on: HOP-62 NSCLC
RPMI-8226 leukemia = tested on: RPMI-8226 leukemia
NCI-H522 lung = tested on: NCI-H522 lung
SNB-19 CNS = tested on: SNB-19 CNS
SF-539 CNS = tested on: SF-539 CNS
IGROV1 ovarian = tested on: IGROV1 ovarian
SK-OV-3 ovarian = tested on: SK-OV-3 ovarian
M14 melanoma = tested on: M14 melanoma
A498 renal = tested on: A498 renal
SN12C renal = tested on: SN12C renal
MOLT-4 leukemia = tested on: MOLT-4 leukemia
DU-145 prostate = tested on: DU-145 prostate
OVCAR-5 ovarian = tested on: OVCAR-5 ovarian
MDA-MB-435 melanoma = tested on: MDA-MB-435 melanoma
UACC-257 melanoma = tested on: UACC-257 melanoma
NCI-H23 lung = tested on: NCI-H23 lung
UACC-62 melanoma = tested on: UACC-62 melanoma
HCT-15 colon = tested on: HCT-15 colon
SNB-75 CNS = tested on: SNB-75 CNS
MDA-MB-231 breast = tested on: MDA-MB-231 breast
CAKI-1 renal = tested on: CAKI-1 renal
SF-268 CNS = tested on: SF-268 CNS
MALME-3M melanoma = tested on: MALME-3M melanoma
HOP-92 NSCLC = tested on: HOP-92 NSCLC
KM12 colon = tested on: KM12 colon
SK-MEL-5 melanoma = tested on: SK-MEL-5 melanoma
TK-10 renal = tested on: TK-10 renal
SK-MEL-28 melanoma = tested on: SK-MEL-28 melanoma
HT29 colon = tested on: HT29 colon
EKVX NSCLC = tested on: EKVX NSCLC
A549 NSCLC = tested on: A549 NSCLC
MCF7 breast = tested on: MCF7 breast
HS 578T breast = tested on: HS 578T breast
OVCAR-4 ovarian = tested on: OVCAR-4 ovarian
NCI-H322M lung = tested on: NCI-H322M lung
NCI/ADR-RES ovarian = tested on: NCI/ADR-RES ovarian
HCT-116 colon = tested on: HCT-116 colon
HL-60(TB) leukemia = tested on: HL-60(TB) leukemia
OVCAR-8 ovarian = tested on: OVCAR-8 ovarian
LOX IMVI melanoma = tested on: LOX IMVI melanoma
BT-549 breast = tested on: BT-549 breast
PC-3 prostate = tested on: PC-3 prostate
T-47D breast = tested on: T-47D breast
SR leukemia = tested on: SR leukemia
NCI-H226 lung = tested on: NCI-H226 lung
COLO 205 colon = tested on: COLO 205 colon
HCC-2998 colon = tested on: HCC-2998 colon
SF-295 CNS = tested on: SF-295 CNS

CCc1c[nH]c2ncnc(N3CC[C@@](N)(CNC(=O)c4ccc(F)cc4F)C3)c12
GI50 (RXF 393 renal): 27.8 µM | TGI (RXF 393 renal): > 100 µM | GI50 (ACHN renal): 15.5 µM | TGI (ACHN renal): 50 µM | GI50 (U251 glioblastoma): 37.4 µM | TGI (U251 glioblastoma): > 100 µM | GI50 (OVCAR-3 ovarian): 33.8 µM | TGI (OVCAR-3 ovarian): > 100 µM | GI50 (NCI-H460 NSCLC): 11.3 µM | TGI (NCI-H460 NSCLC): > 100 µM | GI50 (MDA-MB-468 breast): 13.9 µM | TGI (MDA-MB-468 breast): 55.5 µM | GI50 (HOP-62 NSCLC): 20 µM | TGI (HOP-62 NSCLC): 93 µM | GI50 (RPMI-8226 leukemia): 14.2 µM | TGI (RPMI-8226 leukemia): 54.7 µM | GI50 (NCI-H522 lung): 16.8 µM | TGI (NCI-H522 lung): 47.4 µM | GI50 (SNB-19 CNS): 61.9 µM | TGI (SNB-19 CNS): > 100 µM | GI50 (SF-539 CNS): 11.9 µM | TGI (SF-539 CNS): > 100 µM | GI50 (IGROV1 ovarian): 6.09 µM | TGI (IGROV1 ovarian): 32.4 µM | GI50 (SK-OV-3 ovarian): 13.6 µM | TGI (SK-OV-3 ovarian): > 100 µM | GI50 (M14 melanoma): 28.4 µM | TGI (M14 melanoma): > 100 µM | GI50 (A498 renal): 2.72 µM | TGI (A498 renal): 19.3 µM | GI50 (SN12C renal): 23.3 µM | TGI (SN12C renal): 88.5 µM | GI50 (MOLT-4 leukemia): 5.23 µM | TGI (MOLT-4 leukemia): 20.3 µM | GI50 (DU-145 prostate): 23.2 µM | TGI (DU-145 prostate): 94.1 µM | GI50 (OVCAR-5 ovarian): 17.1 µM | TGI (OVCAR-5 ovarian): 76 µM | GI50 (MDA-MB-435 melanoma): 31.4 µM | TGI (MDA-MB-435 melanoma): > 100 µM | GI50 (UACC-257 melanoma): 16.5 µM | TGI (UACC-257 melanoma): 37 µM | GI50 (NCI-H23 lung): 14.5 µM | TGI (NCI-H23 lung): 39.9 µM | GI50 (UACC-62 melanoma): 18.9 µM | TGI (UACC-62 melanoma): 59.2 µM | GI50 (HCT-15 colon): 32 µM | TGI (HCT-15 colon): > 100 µM | GI50 (SNB-75 CNS): 31.3 µM | TGI (SNB-75 CNS): > 100 µM | GI50 (MDA-MB-231 breast): 35.6 µM | TGI (MDA-MB-231 breast): > 100 µM | GI50 (CAKI-1 renal): 16.5 µM | TGI (CAKI-1 renal): > 100 µM | GI50 (SF-268 CNS): 48.3 µM | TGI (SF-268 CNS): > 100 µM | GI50 (MALME-3M melanoma): 14.2 µM | TGI (MALME-3M melanoma): 37.5 µM | GI50 (HOP-92 NSCLC): 28.6 µM | TGI (HOP-92 NSCLC): > 100 µM | GI50 (KM12 colon): 4.05 µM | TGI (KM12 colon): > 100 µM | GI50 (SK-MEL-5 melanoma): 11 µM | TGI (SK-MEL-5 melanoma): 28.4 µM | GI50 (TK-10 renal): 13.5 µM | TGI (TK-10 renal): 42.8 µM | GI50 (SK-MEL-28 melanoma): 25.5 µM | TGI (SK-MEL-28 melanoma): > 100 µM | GI50 (HT29 colon): 29.1 µM | TGI (HT29 colon): > 100 µM | GI50 (EKVX NSCLC): 28.6 µM | TGI (EKVX NSCLC): > 100 µM | GI50 (A549 NSCLC): 20.8 µM | TGI (A549 NSCLC): 50.7 µM | GI50 (MCF7 breast): 12.7 µM | TGI (MCF7 breast): > 100 µM | GI50 (HS 578T breast): 14.9 µM | TGI (HS 578T breast): 33.7 µM | GI50 (OVCAR-4 ovarian): > 100 µM | TGI (OVCAR-4 ovarian): > 100 µM | GI50 (NCI-H322M lung): 22 µM | TGI (NCI-H322M lung): 79.4 µM | GI50 (NCI/ADR-RES ovarian): 89 µM | TGI (NCI/ADR-RES ovarian): > 100 µM | GI50 (HCT-116 colon): 20.5 µM | TGI (HCT-116 colon): > 100 µM | GI50 (HL-60(TB) leukemia): 15.7 µM | TGI (HL-60(TB) leukemia): 29.4 µM | GI50 (OVCAR-8 ovarian): 41.3 µM | TGI (OVCAR-8 ovarian): > 100 µM | GI50 (LOX IMVI melanoma): 18.9 µM | TGI (LOX IMVI melanoma): 47.3 µM | GI50 (BT-549 breast): 10.9 µM | TGI (BT-549 breast): 24.9 µM | GI50 (PC-3 prostate): 22.1 µM | TGI (PC-3 prostate): > 100 µM | GI50 (T-47D breast): 35.3 µM | TGI (T-47D breast): > 100 µM | TGI (SR leukemia): 0.816 µM | GI50 (NCI-H226 lung): 20.2 µM | TGI (NCI-H226 lung): > 100 µM | GI50 (COLO 205 colon): 15.8 µM | TGI (COLO 205 colon): 41.5 µM | GI50 (HCC-2998 colon): 18.8 µM | TGI (HCC-2998 colon): > 100 µM | GI50 (SF-295 CNS): 29.1 µM | TGI (SF-295 CNS): > 100 µM
